# Data taken from patent US20210338557A1, “Oxidized Derivatives of GDF-11 Fragments” (Avon Products, Inc., priority 2019, published 2021).
# Where a SMILES comes first, the peptide text is derived from it. [ ]: non-standard residue; d: D form. Met(O2) = CS(=O)(=O)CC[CH](N)C(=O)O; Met(O) = CS(=O)CC[CH](N)C(=O)O
# How the values were obtained:
# [1] = system: Human dermal fibroblast cells; experiment: Hyaluronic acid (HA) secretion by human dermal fibroblasts, HTRF HABP kit; assay type: cell-based; settings: 48 h, relative to vehicle control
# Description: (§1) Human dermal fibroblast cells were grown in a 96 well plate in DMEM media (available from Corning, N.Y.) supplemented with 10% Fetal Bovine Serum (FBS) and L-glutamine (0.07×10^5 cells/plate). After reaching about 75% confluence, cells were transferred into DMEM media without FBS and incubated for 4-6 hours. Next, cells were treated with a peptide or prodrug thereof (MVV, Ac-MVV) or peptide derivative or prodrug thereof (M(O)2VV, Ac-M(O)2VV, Ac-M(O)VV) at 0.00001%, 0.0001%, 0.0005%, or 0.001% final concentration in DMEM media without FBS for 48 h. After treatment, the media were collected and cell viability was measured using MTT. The amount of collagen or hyaluronic acid (HA) secreted was tested in the media using an HTRF human pro-collagen I kit or an HTRF HABP kit, respectively (each available from Cisbio Inc., Bedford, Mass.).
# The results for HA production following administration to the fibroblasts are summarized in Table 13 as percent change of HA production for each active relative to vehicle control. p values are given with respect to the change in HA on the fibroblasts with vehicle control administration or with respect to […] administration.
# [2] = system: Human 3D skin EFT400FT tissues; experiment: HA production in full thickness 3D skin cultures, HTRF HABP kit; assay type: cell-based; settings: topical daily for 3 days, n=6
# Description: A series of experiments was conducted to assess the effects of peptide derivatives on the production of hyaluronic acid (HA) on full thickness 3D skin cultures. Five different treatment regimens were assessed: (1) 0.01% by weight M(O)2VV in vehicle; (2) 0.002% by weight M(O)2VV in vehicle; (3) 0.01% by weight Ac-M(O)2VV in vehicle; (4) 0.002% by weight Ac-M(O)2VV in vehicle; and (5) vehicle alone (DMSO). Compositions at the indicated weight percentages in DMSO were applied to 3D skin equivalents daily for 3 consecutive days.
# Human 3D skin EFT400FT tissues (MatTek, MA) were cultured following the manufacturer's instructions. Each treatment regimen was topically applied to six 3D skin samples. Different 3D skin samples were assigned to one of treatment regimens (1)-(5) as described above, with six skin tissue models allocated to each treatment regimen (i.e., n=6). Following treatment, media were collected and the amount of hyaluronic acid secreted from the cells was measured using a HTRF HABP kit (available from Cisbio Inc., Bedford, Mass.).
# The results for HA production are shown in Table 15. p values are given in relation to administration with vehicle control alone or in relation to MVV.
# explanted skin tissue [3] = experiment: Ex vivo skin explant HA score (alcian blue stain, image analysis); assay type: cell-based, human; settings: for HA score, Mean: days 0, 1, 2, 5, 7
# Description: (§2) Samples of explanted skin tissue were obtained from an abdominal plasty. Samples (33 in total) were maintained in tissue culture medium at 37° C. in a humid, 5% CO2 atmosphere for the duration of the study.
# (§3) The skin tissue explants were then distributed into appropriate controls or treated samples in triplicates. The control received only a vehicle (DMSO), and the treatment samples received vehicle comprising either M(O)2VV or Ac-M(O)2VV at 0.0005%, 0.001%, or 0.01% by weight of the composition. Administration of vehicle or vehicle with the peptide occurred on days 0, 1, 2, 5, and 7.
# (§4) Stained tissue sections (in triplicates) were examined for qualitative and semi-qualitative differences between treated and control samples and low and high power using Zeiss Mimax and Midi BF microscope and software system. For HA evaluation, samples were washed and processed with Methylthiazolyldiphenyl-tetrazolium bromide (MTT). MTT is converted to water-insoluble dark blue colored MTT-formazan by mitochondrial dehydrogenases. Subsequently the blue crystals have been solubilized and the color intensity, that is directly proportional to skin vitality, has been measured with a plate reader at a wavelength of 570 nm. For each analyzed skin sample the obtained absorbance value has been normalized upon the weight in grams. Twelve skin suctions were stained with an acian blue stain that dyes acid mucins such as hyaluronan to develop the HA score. Dermal collagen was also measured using a picrosirius red histochemical stain that dyes collagen fibers in purple-red. The papillary dermis was selected for the analysis as thi sis the portion of the dermis more subjected to collagen variation in response to treatment.
# (§5) 8-bit grey-scale photomicrographs were captured and transformed from RGB to the standard CIE L*a*b* color space. The L* value for each pixel in the ROI was evaluated using ImageJ software (National Institutes of Health, Bethesda, Md.) with the Color Inspector 3D plug-in. The amount of hyaluron present was evaluated based on the intensity and distribution of blue color in the dermis using an imaging method analogous to that used for procollagen I. Scores reflecting the amount of hyaluronan detected were assigned using an image analysis algorithm proprietary to Cutech Srl. Higher HA scores is indicative of a higher HA content. Similarly, the amount of procollagen I was evaluated based on the intensity and distribution of immunostained procollagen I in the area corresponding to the papillary dermis, just below the epidermis. As above, 8-bit grey-scale photomicrographs were captured and transformed from RGB to the standard CIE L*a*b* color space. The L* value for each pixel in the ROI was evaluated using ImageJ software (National Institutes of Health, Bethesda, Md.) with the Color Inspector 3D plug-in. Scores reflecting the amount of procollagen I detected were assigned using an image analysis algorithm proprietary to Cutech Srl.
# Columns marked with “**” were highly significant (p<0.05) with respect to untreated samples and with respect to samples administered vehicle alone (DMSO).
# explanted skin tissue [4] = experiment: Ex vivo skin explant collagen score (papillary dermis, image analysis); assay type: cell-based, human; settings: for Collagen score, Mean: days 0, 1, 2, 5, 7
# Description: as §2, §3, §4, §5
# Columns marked with “**” were highly significant (p<0.05) with respect to untreated samples and with respect to samples administered vehicle alone (DMSO.
# [5] = system: Human dermal fibroblast cells; experiment: Collagen (pro-collagen I) secretion by human dermal fibroblasts, HTRF human pro-collagen I kit; assay type: cell-based; settings: 48 h, relative to vehicle control
# Description: as §1
# The results for collagen production following administration to the fibroblasts are summarized in Table 14 as percent change of collagen production for each active relative to vehicle control. p values are given with respect to the change in collagen on the fibroblasts with vehicle control administration or MVV administration.
compound,measurement,setting,value
CC(=O)NC(CCS(C)(=O)=O)C(=O)NC(C(=O)NC(C(=O)O)C(C)C)C(C)C (stereo not drawn) [Ac-M(O)2VV] (Ac-[Met(O2)]-Val-Val-OH; configuration not given here),HA % change,[1]; 0.00001 wt %,10.33%
same,HA % change,[1]; 0.0001 wt %,7.31%
same,HA % change,[1]; 0.0005 wt %,7.90%
same,HA % change,[1]; 0.001 wt %,11.04%
same,% HA change,[2]; 0.002% (20 ppm) in DMSO,1.386%
same,% HA change,[2]; 0.01% (100 ppm) in DMSO,12.47%
same,HA score % Change Over DMSO,explanted skin tissue [3]; 5 ppm,−7%
same,HA score % Change Over Untreated,explanted skin tissue [3]; 5 ppm,−4%
same,"HA score, Mean",explanted skin tissue [3]; 5 ppm in DMSO,9.5
same,HA score % Change Over DMSO,explanted skin tissue [3]; 10 ppm,25%
same,HA score % Change Over Untreated,explanted skin tissue [3]; 10 ppm,28%
same,"HA score, Mean",explanted skin tissue [3]; 10 ppm in DMSO,12.7
same,HA score % Change Over DMSO,explanted skin tissue [3]; 100 ppm,9%
same,HA score % Change Over Untreated,explanted skin tissue [3]; 100 ppm,12%
same,"HA score, Mean",explanted skin tissue [3]; 100 ppm in DMSO,11.1
same,Collagen score % Change Over DMSO,explanted skin tissue [4]; 5 ppm,73%
same,Collagen score % Change Over Untreated,explanted skin tissue [4]; 5 ppm,57%
same,"Collagen score, Mean",explanted skin tissue [4]; 5 ppm in DMSO,61.7
same,Collagen score % Change Over DMSO,explanted skin tissue [4]; 10 ppm,75%
same,Collagen score % Change Over Untreated,explanted skin tissue [4]; 10 ppm,59%
same,"Collagen score, Mean",explanted skin tissue [4]; 10 ppm in DMSO,61.9
same,Collagen score % Change Over DMSO,explanted skin tissue [4]; 100 ppm,52%
same,Collagen score % Change Over Untreated,explanted skin tissue [4]; 100 ppm,35%
same,"Collagen score, Mean",explanted skin tissue [4]; 100 ppm in DMSO,59.6
same,Collagen % change,[5]; 0.00001 wt %,12.29%
same,Collagen % change,[5]; 0.0001 wt %,11.29%
same,Collagen % change,[5]; 0.0005 wt %,−0.56%
same,Collagen % change,[5]; 0.001 wt %,13.65%
CC(=O)NC(CC[S+](C)[O-])C(=O)NC(C(=O)NC(C(=O)O)C(C)C)C(C)C (stereo not drawn) [Ac-M(O)VV] (Ac-[Met(O)]-Val-Val-OH; configuration not given here),HA % change,[1]; 0.00001 wt %,17.50%
same,HA % change,[1]; 0.0001 wt %,16.95%
same,HA % change,[1]; 0.0005 wt %,17.69%
same,HA % change,[1]; 0.001 wt %,21.87%
same,Collagen % change,[5]; 0.00001 wt %,7.20%
same,Collagen % change,[5]; 0.0001 wt %,4.59%
same,Collagen % change,[5]; 0.0005 wt %,14.02%
same,Collagen % change,[5]; 0.001 wt %,13.49%
"CC(C)C(NC(=O)C(NC(=O)C(N)CCS(C)(=O)=O)C(C)C)C(=O)O (stereo not drawn) [M(O)2VV, methionine sulfone valine valine] (H-[Met(O2)]-Val-Val-OH; configuration not given here)",HA % change,[1]; 0.00001 wt %,14.01%
same,HA % change,[1]; 0.0001 wt %,17.49%
same,HA % change,[1]; 0.0005 wt %,10.25%
same,HA % change,[1]; 0.001 wt %,19.43%
same,% HA change,[2]; 0.002% (20 ppm) in DMSO,6.236%
same,% HA change,[2]; 0.01% (100 ppm) in DMSO,10.28%
same,HA score % Change Over DMSO,explanted skin tissue [3]; 5 ppm,18%
same,HA score % Change Over Untreated,explanted skin tissue [3]; 5 ppm,21%
same,"HA score, Mean",explanted skin tissue [3]; 5 ppm in DMSO,12
same,HA score % Change Over DMSO,explanted skin tissue [3]; 10 ppm,14%
same,HA score % Change Over Untreated,explanted skin tissue [3]; 10 ppm,17%
same,"HA score, Mean",explanted skin tissue [3]; 10 ppm in DMSO,11.6
same,HA score % Change Over DMSO,explanted skin tissue [3]; 100 ppm,−4%
same,HA score % Change Over Untreated,explanted skin tissue [3]; 100 ppm,−1%
same,"HA score, Mean",explanted skin tissue [3]; 100 ppm in DMSO,9.8
same,Collagen score % Change Over DMSO,explanted skin tissue [4]; 5 ppm,−7%
same,Collagen score % Change Over Untreated,explanted skin tissue [4]; 5 ppm,−25%
same,"Collagen score, Mean",explanted skin tissue [4]; 5 ppm in DMSO,53.6
same,Collagen score % Change Over DMSO,explanted skin tissue [4]; 10 ppm,35%
same,Collagen score % Change Over Untreated,explanted skin tissue [4]; 10 ppm,18%
same,"Collagen score, Mean",explanted skin tissue [4]; 10 ppm in DMSO,57.9
same,Collagen score % Change Over DMSO,explanted skin tissue [4]; 100 ppm,13%
same,Collagen score % Change Over Untreated,explanted skin tissue [4]; 100 ppm,−5%
same,"Collagen score, Mean",explanted skin tissue [4]; 100 ppm in DMSO,55.6
same,Collagen % change,[5]; 0.00001 wt %,5.74%
same,Collagen % change,[5]; 0.0001 wt %,12.51%
same,Collagen % change,[5]; 0.0005 wt %,1.56%
same,Collagen % change,[5]; 0.001 wt %,6.07%
"MVV (listed as Homo sapiens) [MW, reference compound]",HA % change,[1]; 0.00001 wt %,5.79%
same,HA % change,[1]; 0.0001 wt %,1.63%
same,HA % change,[1]; 0.0005 wt %,3.66%
same,HA % change,[1]; 0.001 wt %,9.00%
same,Collagen % change,[5]; 0.00001 wt %,7.22%
same,Collagen % change,[5]; 0.0001 wt %,10.56%
same,Collagen % change,[5]; 0.0005 wt %,31.22%
same,Collagen % change,[5]; 0.001 wt %,6.22%
